Laboratory results taken from ChEMBL document CHEMBL3797093, “Optimization of amide-based EP3 receptor antagonists” (Bioorg Med Chem Lett, 2016).

Tests used:
[1] = tested on: Hepatocyte; assay: Drug level in human hepatocytes treated with GSK; format: ADME, cell-based
[2] = Apparent intrinsic clearance in human liver microsomes in presence of NADPH; format: ADME; settings: read-out: CLH(app)
[3] = tested on: Hepatocyte; assay: Drug metabolism in human hepatocytes assessed as N-(5-(2,6-dichlorophenyl)-1,3,4-thiadiazol-2-yl)-4-(2-hydroxyethyl)-3,4-dihydro-2H-benzo[b][1,4]oxazine-6-carboxamide formation; format: ADME, cell-based
[4] = Intrinsic clearance in human hepatocytes; format: ADME, cell-based, Hepatocyte; settings: read-out: CLH
[5] = tested on: Hepatocyte; assay: Drug metabolism in human hepatocytes assessed as 4-ethyl-3,4-dihydro-2H-benzo[b][1,4]oxazine-6-carboxylic acid formation; format: ADME, cell-based
[6] = tested on: Hepatocyte; assay: Drug metabolism in human hepatocytes assessed as N-(5-(2,6-dichlorophenyl)-1,3,4-thiadiazol-2-yl)-3-(ethylamino)-4-hydroxybenzamide formation; format: ADME, cell-based

CCNc1cc(C(=O)Nc2nnc(-c3c(Cl)cccc3Cl)s2)ccc1O
Drug metabolism [1]: metabolite_detected

CCn1ncc2c(Cl)cc(C(=O)Nc3nnc(C4CC4)s3)cc21
microsomal CLint [2]: 10.9 µL/min/mg

CCN1CCOc2ccc(C(=O)Nc3nnc(C4CC4)s3)cc21
microsomal CLint [2]: 25 µL/min/mg

Cn1ncc2ncc(C(=O)Nc3nnc(C4CC4)s3)cc21
microsomal CLint [2]: < 8 µL/min/mg

CCn1ncc2c(F)cc(C(=O)Nc3nnc(C4CC4)s3)cc21
microsomal CLint [2]: 8.6 µL/min/mg

CCn1ncc2c(F)cc(C(=O)Nc3nnc(C4(C)CCN(C(C)=O)CC4)s3)cc21
microsomal CLint [2]: < 8.6 µL/min/mg

Cn1ncc2ccc(C(=O)Nc3nnc(C4CC4)s3)cc21
microsomal CLint [2]: < 8 µL/min/mg

CC(C)n1ncc2ccc(C(=O)Nc3nnc(C4CC4)s3)cc21
microsomal CLint [2]: 13.2 µL/min/mg

CCN1CCOc2ccc(C(=O)O)cc21
Drug metabolism [1]: metabolite_detected

CCN1CCOc2ccc(C(=O)Nc3nnc(-c4c(Cl)cccc4Cl)s3)cc21
Drug metabolism [3]: metabolite_detected
CLint scaled [2]: 39 mL/min/kg
CLint scaled [4]: 59 mL/min/kg
Drug metabolism [5]: metabolite_detected
Drug metabolism [6]: metabolite_detected

CCn1ncc2ccc(C(=O)Nc3nnc(C4CC4)s3)cc21
microsomal CLint [2]: < 8 µL/min/mg

CCn1ncc2c(F)cc(C(=O)Nc3nnc(C4(C)CCN(C(=O)C(C)(C)O)CC4)s3)cc21
microsomal CLint [2]: 20 µL/min/mg

CCn1ncc2c(F)cc(C(=O)Nc3nnc(C4(C)CN(C(C)=O)C4)s3)cc21
microsomal CLint [2]: < 8 µL/min/mg

CCn1ncc2c(F)cc(C(=O)Nc3nnc(C4(C)CCN(C(=O)CO)CC4)s3)cc21
microsomal CLint [2]: < 8 µL/min/mg

CCn1ncc2c(F)cc(C(=O)Nc3nnc(C4(C)CCN(C(=O)C(C)O)CC4)s3)cc21 (racemic)
microsomal CLint [2]: < 8 µL/min/mg

O=C(Nc1nnc(-c2c(Cl)cccc2Cl)s1)c1ccc2c(c1)N(CCO)CCO2
Drug metabolism [1]: metabolite_detected

Cn1ncc2cc(C(=O)Nc3nnc(C4CC4)s3)ccc21
microsomal CLint [2]: 21.3 µL/min/mg

CCn1ncc2c(F)cc(C(=O)Nc3nnc(C4(C)CCN(C(C)=O)C4)s3)cc21 (racemic)
microsomal CLint [2]: < 8 µL/min/mg
